Results published in US5618675A, “Methods and compositions for detecting lipopolysaccharides using CAP18 fragments” (Panorama Research, Inc., dated 1997).

Test system: multiple drug-resistant Mycobacterium tuberculosis
Assay: Antimicrobial activity
Type: cell-based
Details: range 0-20 μg/ml

Substance | activity versus multiple drug-resistant Mycobacterium tuberculosis
RNIP: reactive nitrogen inhibitory protein, amino acids 135-171 of SEQ ID NO:4 (rabbit CAP18 C-terminus); purified from granulocytes or synthetic (#197) (GLRKRLRKFRNKIKEKLKKIGQKIQGLLPKLAPRTDY) | inactive
36-1: synthetic rabbit RNIP-derived fragment, amino acids 135-166 of SEQ ID NO:4 (GLRKRLRKFRNKIKEKLKKIGQKIQGLLPKLA) | inactive
